Experimental data: patent publication US8748566B2, “Pharmacologically active antiviral peptides and methods of use” (priority 2000, dated 2014)

How the values were obtained:
Assay type in all cases: cell-based
Vero cells = experiment: Trypan-blue exclusion assay (cytotoxicity)
Experimental: Uninfected Vero cells in serum-free or serum-supplemented DMEM where treated for 1 hour at 37° C. with antiviral peptide SEQ ID NO:1 or control peptide EBX (SEQ ID NO:17), rinsed with PBS, stained for […] at 23° C. with 0.4% trypan-blue in PBS, rinsed again with PBS and air dried.

HSV-1 KOS [1] = experiment: Yield reduction assay (virus production in infected Vero cells); settings: added one hour prior to infection; EB statement for concentrations exceeding 10 μM (FIG. 3)
Experimental: Three days post-infection, Vero cell cultures in microtiter plates were frozen (−80° C.) and thawed (37° C.) three times. Cells were suspended by repeated pipetting and microtiter plates were spun for 10 min at 700×g in a Beckman model TJ-6 tabletop centrifuge. The virus-containing supernates were serially diluted in regular medium and titered on Vero cells. Plaques were counted after staining the monolayers with crystal violet as taught by Grau et al., Invest. Ophthalmol. Vis. Sci. 30:2474 (1989).
Vero cell cultures as prepared in Example 1 were infected with HSV-1 and assayed for virus production as described in Example 1. The antiviral activity of an antiviral peptide according to the present invention EB (SEQ ID NO:1) was compared to the antiviral activity of the current HSV antiviral nucleoside standard, acyclovir. The two peptides were added to the Vero cells one hour prior to infection with HSV.

HSV-1 KOS [2] = experiment: Plaque reduction assay, HSV-1 KOS infection of Vero cell cultures
Experimental: The procedures for growing Vero cells and preparing high titer stocks of HSV-1 KOS as described in (Grau et al., Invest. Ophthal. and Vis. Sci. 30: 2474 (1989)) were utilized. Vero cells were maintained in carbonate-buffered DMEM supplemented with 5% calf serum and 5% fetal bovine serum (regular medium). For some studies, cells were switched to serum-free DMEM buffered with 25 mM Hepes (pH 7.4) and allowed to adapt to that medium for 30 min prior to experimental treatments. Vero cells were seeded into wells (0.28 cm^2) of microtiter plates either at 3.5×10^4 cells/well for use 1 day later (8×10^4 cells/well) or at 1×10^4 cells/well for use 3 days later (2×10^5 cells/well).
Confluent Vero cell cultures in microtiter plates were infected for 1 hour at 37° C. in 40 μl of medium. Except where indicated, peptide treatments in 40 μl of medium lasted from 1 hour before through 1 hour after infection. At the end of the adsorption period, the cultures were re-fed with 100 μl of regular medium. Plaque formation was scored 2 days later and the number of plaques scored per well was normalized to the number counted in the absence of peptide. Using an ocular micrometer, plaque size ([…]) was determined by measuring the largest plaque diameter (L) and the diameter at a 90° angle to that (S). The size of each of the first 40 scored plaques was measured except when a plaque included less than 10 rounded cells or touched the side of the well.

## H-RRKKAAVALLPAVLLALLAP-OH [EB]
Vero cells
  cytotoxic concentrations relative to antiviral concentrations: 100 fold
HSV-1 KOS [1]
  antiviral activity, EB compared with acyclovir: greatest antiviral activity
HSV-1 KOS [2]; EB present before and during adsorption
  effect on plaque size: no effect on plaque size
HSV-1 KOS [2]; absence of serum (FIG. 1B)
  fold lower concentration blocking infections compared to control peptide EBX: 100 fold
HSV-1 KOS [2]; peptide present during infection of Vero cells with HSV-1 KOS
  effect on plaque formation: blocking plaque formation
HSV-1 KOS [2]; presence of serum (FIG. 1A)
  fold lower concentration blocking infections compared to control peptide EBX: 10 fold
HSV-1 KOS [2]; transient treatments with 6 and 12 μM EB (up to 1 hour post-infection)
  combined mean plaque size: 68,000±11,000 μm^2
